The source of these data is patent publication US20240252673A1, “ANTI-TISSUE FACTOR ANTIBODY-DRUG CONJUGATES AND THEIR USE IN THE TREATMENT OF CANCER” (priority 2017, published 2024).

The data set in a line: Phase I/II dose-escalation study: plasma pharmacokinetics. The format is in vivo, human. The settings on record: after tisotumab vedotin, cycle 1 and cycle 2, all dose cohorts (FIG. 4). The procedure: A first-in-human phase I/II dose-escalating study following a 3+3 dose-escalation design was conducted in order to test the safety of tisotumab vedotin in 27 subjects with locally advanced and/or metastatic cancer of various types including cervical cancer (FIG. 2). Tisotumab vedotin was administered by intravenous infusion at doses ranging from 0.3 mg/kg to 2.2 mg/kg on day 1 of a 21-day cycle for four cycles (i.e., each treatment cycle was 3 weeks). Patients with stable disease (SD) or better at the end of four cycles had the option to continue treatment with tisotumab vedotin for eight additional cycles (FIG. 2). Tumor evaluations were performed by CT scans every six weeks. In order to qualify for SD, results of the CT scan scheduled for week six needed to be SD or better. Two CT scans were performed outside the per-protocol defined window.
A primary objective of the study was to assess the safety and tolerability in a mixed population of patients with specified solid tumors. Adverse event (AE) severity was graded according to Common Terminology Criteria for Adverse Events (CTCAE) version 4.03. Secondary objectives of the study included determining the pharmacokinetic (PK) profile of tisotumab vedotin and preliminary evaluation of anti-tumor activity as assessed according to Response Evaluation Criteria in Solid Tumors [RECIST] version 1.1. Dose-limiting toxicities (DLTs) were determined during the first cycle and were defined as grade≥3 events possibly related to tisotumab vedotin. […] Tumor biopsies were required at baseline for TF expression which was assessed by immunohistochemistry utilizing tisotumab. TF staining intensity was determined using the H-scoring system.
The geometric means (% CV) of the time to reach Cmax (Tmax)(hr), maximum concentration (Cmax)(ng/mL), and area under the concentration time curve (AUC)0-t (hr*ng/mL) was measured for the pharmacokinetics (PK) portion of the study (Table 3). Low levels of unconjugated MMAE were measured in systemic circulation (FIG. 4).

Where a SMILES comes first, the peptide text is derived from it. [ ]: non-standard residue; d: D form. The star is where a group is joined. Dolaproine = CO[C@@H]([C@@H]1CCCN1)[C@@H](C)C(=O)O; Dil = CC[C@H](C)[C@H](NC)[C@@H](CC(=O)O)OC; X1 = C[C@@H](N*)[C@@H](O)c1ccccc1; NMeV = CN[C@H](C(=O)O)C(C)C

`CC[C@H](C)[C@@H]([C@@H](CC(=O)N1CCC[C@H]1[C@H](OC)[C@@H](C)C(=O)N[C@H](C)[C@@H](O)c1ccccc1)OC)N(C)C(=O)[C@@H](NC(=O)[C@@H](NC)C(C)C)C(C)C` [MMAE, monomethyl auristatin E] (H-[NMeV]V[Dil][Dolaproine]-X1): the “unconjugated MMAE in systemic circulation” value was “Low levels”.
